{"source": "patent US6608088B1", "about": "“Use of donerezil for the treatment of functional and/or organic pain syndromes” (priority 1998, dated 2003)", "key": {"[1]": {"conditions": "human, in vivo"}, "primary fibromyalgia": {"tested_on": "primary fibromyalgia", "experiment": "Treatment of patients with primary fibromyalgia", "assay_type": "in vivo", "conditions": "16 patients, same conditions as migraine tests (5 mg daily)", "description": "Systemic pain of muscles, tendons, viscera (oesophagus, stomach, colon); these syndromes are considered particularly difficult to hale."}, "[2]": {"tested_on": "pain syndromes caused by denervation or amputation", "experiment": "Treatment of patients with pain syndromes caused by denervation", "assay_type": "in vivo", "conditions": "five of nine patients, no advantage after antiinflammatory analgesics or opioids; same conditions as above (5 mg daily)", "experimental": "In the pain syndromes caused by denervation or amputation pain develops on the limb or body part which is denervated and therefore is insensible to nociceptive stimuli (“painful anaesthesia”).\nNine patients who had no advantages after treatment with antiinflammatory analgesica or opioids were tested in the same conditions as above described."}, "[3]": {"tested_on": "migraine attacks longer than 72 h", "experiment": "Acute treatment of patients with migraine attacks longer than 72 h", "assay_type": "in vivo", "conditions": "8 patients, 20 mg acutely given"}}, "note": "Counter-ions that a name gives are not always drawn.", "data": [{"smiles": "COc1cc2c(cc1OC)C(=O)C(CC1CCN(Cc3ccccc3)CC1)C2", "note": "(centres unmarked) [Donepezil hydrochloride, 1H-Inden-1-one, 2,3-dihydro-5,6-dimethoxy-2-[[1-(phenylmethyl)4-piperidinyl]methyl]-, hydrochloride]", "values": [{"measurement": "tolerance to the treatment", "setting": "[1]", "result": "high tolerance"}, {"measurement": "cases treated with improvement of the patient's conditions", "setting": "primary fibromyalgia", "result": 60, "unit": "%"}, {"measurement": "cases with total disappearance of the pain", "setting": "primary fibromyalgia", "result": 10, "unit": "%"}, {"measurement": "improvement of conditions", "setting": "[2]", "result": "50-80%"}, {"measurement": "results of acute treatment of migraine attacks", "setting": "[3]", "result": "highly satisfactory"}]}]}
